In paper PMC7377376, “Drug targeting CYP2E1 for the treatment of early-stage alcoholic steatohepatitis” (PLoS ONE, 2020):

Target: rat liver microsomes
Experiment: Difference spectra titration of rat liver microsomes
Conditions: one specific binding site
Protocol: Liver microsomes were prepared as follows: Rat liver was homogenized in 33 mM TRIS*HCl pH 7.4, 33 mM KCl, 1 mM EDTA, 250 mM sucrose and protease inhibitors. The homogenate was centrifuged first at 600 g then at 6,500 g for 10 minutes to separate nuclei and mitochondria. Supernatant was centrifuged at 105,000 g for 60 minutes. The pellet (microsomal fraction) was dissolved in 10 mM TRIS*HCl pH 7.4, 10 mM EDTA, 50% glycerol and stored at -80°C [20].
Difference spectra measurements were performed in tandem cuvettes at 37°C. The sample as well as the reference chamber contained rat liver microsomes in 100 mM HEPES buffer (pH 7.6). The baseline was recorded between 365 and 500 nm. Varying concentrations of 12-Imidazolyl-dodecan-1-yl-phosphocholine (5–95 μM) were added to rat microsomes. Difference spectra were obtained after the system reached equilibrium.

OCCCCCCCCCCCCn1ccnc1 [I-ol]
Kd: 0.578 µM
